Where “and” joins values, the source holds several entries; their conditions need not be identical. Equal entries are not always repeated.
How the values were obtained:
[1] = tested on: IDH1(R132H) primary human AML cells; experiment: AML cell differentiation in blood (flow cytometry, % hCD33+hCD11b+ of hCD45+ cells), human AML PDx models in NSG mice; format: in vivo; settings: for AML cell differentiation (% hCD33 + hCD11b+ (of hCD45+ cells)): F: 50 mg/kg Midostaurin, QD, PO, one animal
Description: (§1) Compounds and Formulation. For in vivo studies, each test article is prepared at an appropriate concentration with vehicle. […] Compound A is prepared fresh at the appropriate concentrations with vehicle every 7 days and stored at 4° C. between doses. […] Cytarabine is prepared fresh weekly by dilution with sterile saline from stock solution of Cytarabine (injection 20 mg/mL, (Pfizer injectables')). Azacitidine (Sigma, Lot #MKBR7212) is formulated in sterile water and is prepared fresh daily immediately before dosing. In vivo human AML PDx models. […] Two models are used in the studies: […] As needed, splenocytes from tumor-bearing mice are used to propagate and expand the models, as described. Each test article is prepared as described above at an appropriate concentration with vehicle to give animals the doses tested in this study at a dosing volume of 10 μL/gram body weight. Mice receiving Compound A (PO, QD) are treated at the indicated doses for the duration of the study. The combination agents are dosed as follows: […] Treated mice are assessed in comparison to vehicle treated and naïve (non-tumor bearing) control mice. Body weight is recorded twice per week. […] AML PDx model propagation. […] Spleens are processed and splenocytes isolated as described below. Two hundred μL per subject of the splenocyte prep is injected IV (intravenous, tail vein) into recipient NSG mice. […] Once engraftment is confirmed, the mice are monitored biweekly until ready to be put on study. […] Submandibular blood is collected. Spleen/Splenocyte Processing and Prep. After excision, a spleen is weighed, and […] is placed in a standard sterile 15 mL polypropylene conical tube containing PBS, and placed on ice. […] The spleen is placed in ice cold sterile PBS in a 15 mL collection tube. The spleen is removed from the collection tube and placed in a 100 micron 50 mL conical tube cell strainer (BD Falcon #352360). The spleen is processed by gentle rubbing of the spleen tissue against the surface of the cell strainer with the end of a 5 mL syringe plunger in a circular motion. The surface of the strainer is rinsed with 10 mL room temperature sterile DPBS (HyClone SH30028) 3 times during the process. […] The cell pellet is collected by centrifugation (300×g) and washed three times with 30 mL sterile DPBS. The cells are counted and resuspended in DPBS at the desired implant concentration. Bone Marrow Collection. […] Flow cytometry analysis of human white cells. Submandibular blood samples from in vivo studies are collected. Fluor-conjugated antibody stains are added according to the manufacturer's instructions (anti-human CD33-PE (clone WM53, BD Cat #555450), anti-human CD14-APC (clone MφpP9, BD Cat #340436), anti-human CD15-V450 (clone HI98, BD Cat #561584), anti-human CD117-BV421 (clone YB5.B8, BD Cat #562434), anti-human […]7 (clone ICRF44, BD Cat #557754), anti-human […]7 (clone HI30, BD Cat #557748), and anti-human CD3-FITC (clone SK7, BD Cat #340542)). The samples are incubated for 30 minutes at room temperature, protected from light. After the incubation, 1.5 mL 1×BD Lyse/Fix (37° C., (BD #558049)) is added to each sample and incubated for 12 minutes at room temperature. The tubes are centrifuged at 300×g for 7 minutes. BD Lyse/Fix solution is aspirated and the cell pellet washed with stain/wash buffer 3 times (1 wash step consisted of: pellet resuspended in 3 mL stain/wash buffer, centrifuged at 300×g, aspirated wash). Fixed cells are then resuspended in 300 to 400 μL stain/wash buffer. Samples are analyzed on a Becton Dickinson FACSVerse Flow cytometer (Cat #651155 Serial #Z6511550447) using standard flow cytometry principles and techniques. Samples are analyzed on the same day as they are stained and fixed. Population gating and data analysis of percent population are performed in the FACSuite software on the FACSVerse cytometer. Percent population values from the data analysis are plotted in Graphpad Prism or in JMP13. […]

2-HG production = experiment: Plasma 2-HG inhibition (LC-MS metabolite analysis in plasma of AML PDx model); format: in vivo, human
[2] = tested on: IDH1(R132H) primary human AML cells; experiment: Bone marrow AML clearance (flow cytometry), human AML PDx models in NSG mice; format: in vivo
Description: as §1

[3] = tested on: IDH1(R132H) primary human AML cells; experiment: AML clearance in peripheral blood (flow cytometry, % hCD33+hCD45+ of total white cells), human AML PDx models in NSG mice; format: in vivo; settings: for AML clearance (% hCD33 + hCD45+ (of total white cells)): 50 mg/kg Midostaurin, QD, PO, each value one animal, 50 mg/kg; for % peripheral blood AML cells (treatment group value): group F: midostaurin (50 mg/kg)
Description: as §1

[4] = plasma, F: 50 mg/kg Midostaurin, QD, PO, one line per animal
[5] = 50 mg/kg Midostaurin, QD, PO, each line one animal

Structure (SMILES): CO[C@@H]1[C@H](N(C)C(=O)c2ccccc2)C[C@H]2O[C@]1(C)n1c3ccccc3c3c4c(c5c6ccccc6n2c5c31)C(=O)NC4 [Midostaurin, reference compound]
- AML cell differentiation (% hCD33 + hCD11b+ (of hCD45+ cells)) ([1]; treatment day 7): 25.48% and 12.53% and 9% and 38.3% and 27.14%
- AML cell differentiation (% hCD33 + hCD11b+ (of hCD45+ cells)) ([1]; treatment day 23): 25.27% and 17.13% and 9.1% and 36.3% and 25.56%
- AML cell differentiation (% hCD33 + hCD11b+ (of hCD45+ cells)) ([1]; treatment day 36): 45.81% and 34.03% and 21.16% and 47.53% and 25.64%
- AML cell differentiation (% hCD33 + hCD11b+ (of hCD45+ cells)) ([1]; treatment day 50): 43.86% and 28.75% and 20.78% and 40% and 30.3%
- AML cell differentiation (% hCD33 + hCD11b+ (of hCD45+ cells)) ([1]; treatment day −8 (before treatment)): 19.58% and 13.81% and 18.12% and 19.57%
- % AML cell differentiation (treatment group value) ([1]; day 50, group F: midostaurin (50 mg/kg), vehicle 28%): 33%
- % plasma 2-HG (treatment group value) (2-HG production; group F: midostaurin (50 mg/kg), vehicle 100%): 70%
- 2-HG (2-HG production; [4]): 14.919 µM and 11.402 µM and 7.494 µM and 21.55 µM and 10.075 µM
- Naive Subtracted 2-HG (2-HG production; [4]): 12.51 µM and 8.993 µM and 5.085 µM and 19.141 µM and 7.666 µM
- Bone Marrow AML Clearance: % hCD33 + hCD45+ (% of white cells) [2, 5]: 51.84% and 6.3% and 22.34% and 59.24% and 25.84%
- Bone Marrow AML Clearance: % hCD45+ (% of white cells) [2, 5]: 51.3% and 6.25% and 22.22% and 58.42% and 25.71%
- % human AML cells in bone marrow (of white cells; lower = more clearance) ([2]; group F: midostaurin (50 mg/kg), vehicle 86%): 26%
- AML clearance (% hCD33 + hCD45+ (of total white cells)) ([3]; Treatment day 7): 10.05% and 3.62% and 8.05% and 11.35% and 2.53%
- AML clearance (% hCD33 + hCD45+ (of total white cells)) ([3]; Treatment day 23): 6.24% and 3.75% and 7.09% and 2.63% and 0.84%
- AML clearance (% hCD33 + hCD45+ (of total white cells)) ([3]; Treatment day 36): 3.7% and 1.83% and 4.68% and 2.15% and 0.28%
- AML clearance (% hCD33 + hCD45+ (of total white cells)) ([3]; Treatment day 50): 2.21% and 0.76% and 3.72% and 1.29% and 0.21%
- AML clearance (% hCD33 + hCD45+ (of total white cells)) ([3]; Treatment day 64): 7.01% and 2.16% and 3.93% and 4.84% and 0.18%
- AML clearance (% hCD33 + hCD45+ (of total white cells)) ([3]; Treatment day 78): 18.03% and 2.94% and 8.24% and 14.27% and 0.14%
- AML clearance (% hCD33 + hCD45+ (of total white cells)) ([3]; Treatment day 92): 35.38% and 4.09% and 14.55% and 30.48% and 0.86%
- AML clearance (% hCD33 + hCD45+ (of total white cells)) ([3]; Treatment day −8): 7.94% and 8.17% and 6.23% and 2.27%
- % peripheral blood AML cells (treatment group value) ([3]; day 50, vehicle 32%): 1.1%
- % peripheral blood AML cells (treatment group value) ([3]; day 64, vehicle 67%): 2.2%
- % peripheral blood AML cells (treatment group value) ([3]; day 78, vehicle 129%): 3.9%

Source: patent US12440493B2, “Combination therapy for treating cancer comprising substituted piperazines” (Eli Lilly and Company, priority 2020, dated 2025)
